This passage reports IC50 results from BindingDB's records for doi:10.1016/j.ejmech.2021.113362 (The First Affiliated Hospital of Wenzhou Medical University, 2021).

Structures are written as SMILES.

The target in this experiment is Signal transducer and activator of transcription 3 (Homo sapiens, UniProt P40763). Description: Inhibition of STAT3 phosphorylation in human MDA-MB-231 cells by sandwich ELISA. Background: In an ELISA, binding on a coated surface is turned into a signal by an enzyme label.
Sequence of Signal transducer and activator of transcription 3 (P40763 whole entry): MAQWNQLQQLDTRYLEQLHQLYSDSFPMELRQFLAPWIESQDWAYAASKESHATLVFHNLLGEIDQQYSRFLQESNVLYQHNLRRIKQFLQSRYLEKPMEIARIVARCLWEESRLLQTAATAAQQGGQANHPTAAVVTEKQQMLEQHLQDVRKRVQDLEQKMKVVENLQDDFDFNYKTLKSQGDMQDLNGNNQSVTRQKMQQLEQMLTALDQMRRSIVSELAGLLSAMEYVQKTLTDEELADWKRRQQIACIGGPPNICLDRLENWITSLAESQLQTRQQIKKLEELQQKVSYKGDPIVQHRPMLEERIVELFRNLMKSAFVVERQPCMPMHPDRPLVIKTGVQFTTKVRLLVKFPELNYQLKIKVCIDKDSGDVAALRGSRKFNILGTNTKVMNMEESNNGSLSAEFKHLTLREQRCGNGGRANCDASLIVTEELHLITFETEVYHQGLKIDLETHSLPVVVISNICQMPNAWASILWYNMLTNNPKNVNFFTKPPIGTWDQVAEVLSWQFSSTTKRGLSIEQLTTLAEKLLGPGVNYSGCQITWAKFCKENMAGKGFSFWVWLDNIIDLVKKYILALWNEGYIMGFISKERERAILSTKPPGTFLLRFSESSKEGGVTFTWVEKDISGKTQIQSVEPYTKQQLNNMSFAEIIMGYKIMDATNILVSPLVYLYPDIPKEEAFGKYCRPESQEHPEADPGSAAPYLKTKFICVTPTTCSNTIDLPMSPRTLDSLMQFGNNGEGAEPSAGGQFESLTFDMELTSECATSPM

`CC(C)(C)OC(=O)c1ccc(NC(=O)c2cccc(S(N)(=O)=O)c2)cc1`: 920 nM corresponded to half-maximal inhibition (IC50).

For the molecule `COc1cc(NC(=O)c2ccc(Cl)c(S(N)(=O)=O)c2)cc(OC)c1OC`, the concentration for half-maximal inhibition (IC50) (usually the concentration that inhibits the measured activity by half) amounted to 720 nM.

As for `CC(C)(C)OC(=O)c1ccc(NC(=O)c2ccc(Cl)c(S(N)(=O)=O)c2)cc1`, half-maximal inhibition (IC50) was put at 230 nM. This IC50 lies about 3.1-fold lower than the previous one.

For `O=C(Nc1ccc([N+](=O)[O-])cc1Cl)c1cc(Cl)ccc1O` [5-chloro-N-(2-chloro-4-nitrophenyl)-2-hydroxybenzamide], 210 nM corresponded to half-maximal inhibition (IC50). This IC50 and that of the molecule before are within 1.5-fold of each other.
